From patent US20220281860A1, “COMPOUNDS AND METHODS OF TREATING RNA-MEDIATED DISEASES” (Arrakis Therapeutics, Inc., priority 2016, published 2022)

Tests used:
[1] = system: Split3WJ.2 up_5IB+Split3WJ.2_down_3FAM (trans 3WJ as 1:1 mix); assay: Fluorescence quenching binding assay; conditions: trans 3WJ Split3WJ.2; two concentration points; FIG. 109
Method: (§1) This assay will be used to test binding of compounds for RNA three way junction (such as a 38 nt construct). This is a fluorescence quenching assay utilizing FAM as fluorescence tag and Iowa Black as quencher. Tags are attached at the 3′ and 5′ end, respectively. Stable formation of MW upon compound binding would lead to quenching of the FAM fluorescence due to close proximity of the Iowa Black tag. Assay readout: FAM (485-520 nm) Fluorescence Intensity.
(§2) Assay sample buffer used: 10 mM CacoK pH 7.2, 30 mM NaCl. Buffer preparation in Dnase/Rnase Free distilled water (Gibco Life Technologies).
(§3) Tool compounds provided as dry powder are prepared as 50 mM stock solution in 100% d6-DMSO. Stock solutions of 50 mM concentration in d6-DMSO are stored at RT.
(§4) Sample plate: Greiner cat #784076, black, 384 (Dilution plate: Greiner REF 781101, PS-Microplate, 384 well, clear). Fluorescence Intensity device: Envision 1040285
(§5) Daily fresh (10 ml): 1 ml 100 mM CacoK pH 7.2 and 0.3 ml 1 M NaCl filled up to 10 ml with Dnase/Rnase Free distilled water […]
(§6) Calibration of the expected fluorescence signal at various RNA concentrations in either CacoK or NaPO4 buffers was performed first. Experiments in buffers containing salt show distinct fluorescence quenching behavior. […]
(§7) The fluorescence quenching experiment was repeated for compounds Ark0000013 and Ark0000014 to measure binding with: […]

[2] = system: Split3WJ.2_up_5IB+Split3WJ.2_down_3FAM (trans 3WJ as 1:1 mix; Split3WJ_2); assay: Thermal shift binding assay; conditions: Split3WJ_2 (trans 3WJ), 1 μM RNA, 8 μM compound
Source text: (§8) Purpose: Test binding of compounds for RNA three way junction (for example, a construct of 38 nt). Thermal shift assay based on established fluorescence quenching assay utilizing FAM as fluorescence tag and Iowa Black as quencher. Tags were attached at the 3′ and 5′ end, respectively. Stable formation of 3WJ upon compound binding would lead to quenching of the FAM fluorescence due to close proximity of the Iowa Black tag. Thermal unfolding leads to increase of fluorescence emission. Assay readout: FAM (465-510 nm) Thermal Shift.
as §2, §3
(§9) Sample plate: Roche, Light Cycler480 Multiwell Plate96, white, REF 04729692001. (Dilution plate: Greiner REF 781101, PS-Microplate, 384 well, clear). Thermal Shift device: Roche, Light Cycler480.
(§10) Daily fresh (10 ml): 1 ml 100 mM CacoK pH 7.2 and 0.3 ml 1 M NaCl filled up to 10 ml with Dnase/Rnase Free distilled water.
(§11) Dilute the RNA 1:10 (final 10 μM) in Assay Buffer.
(§12) Heat up the diluted RNA up to 90° C. for 5 min (sealed Eppendorf Tube).
(§13) Cool down the RNA probe slowly to RT.
(§14) Dilute the compounds to 800 μM in DMSO (Assay: 8 μM).
(§15) 78.4 μL Assay Buffer are pipetted into Greiner REF 781101, PS-Microplate, 384 (each well needed).
(§16) Add 0.8 μL of the RNA-Solution ([…]).
(§17) Add 0.8 μL Compound-Solution ([…]).
(§18) Final concentrations in the sample: 1 μM RNA, 8 μM compound, 1% DMSO
(§19) Pipet 20 μL Sample Solution into Roche, Light Cycler480 Multiwell Plate96, white, REF 04729692001.
(§20) When sample transfer is finished, seal the plate with a clear topseal (part of REF 04729692001).
(§21) Centrifuge the plate with a table-top device to spin down the samples.
(§22) Measure the 96 plate with the LightCycler480 (Channel: 480/510 nm; Temperature: 41-91° C.).
(§23) Analyse measurement-data with the MeltingCurveGenotyping Mode.
(§24) Settings: Acquisition mode: continuous; Ramp rate: 0.1 C.°/sec; Acquisition: 6/C.° Melt Curve Genotyping for All Samples
(§25) Melting curves analysis show melting temperature (Tm) of ˜51° C. Range of RNA concentrations was tested and assay window was determined (conc. range of 0.5-1 μM yields best results). The choice of buffer also affected the Tm. RNA constructs were tested under different buffer conditions (especially in presence of salt) in the thermal shift assay. […] CacoK with 30 mM salt at 1 μM RNA conc. was used to assess compound effects on 3WJ stability. […] These conditions were used for screening test compounds.
(§26) Compounds Ark0000013 and Ark0000014 were also tested in the thermal shift assay against three RNA 3WJ constructs, A) RNA3WJ_1.0.0_5IB_3FAM (cis 3WJ with one unpaired nucleotide); B) Split3WJ.1_up_5IB+Split3WJ.1_down_3FAM (trans 3WJ as 1:1 mix); and C) Split3WJ.2_up_5IB+Split3WJ.2_down_3FAM (trans 3WJ as 1:1 mix).

[3] = system: RNA3WJ_1.0.0_5IB_3FAM (cis 3WJ with one unpaired nucleotide); assay: Thermal shift binding assay; conditions: RNA3WJ_1.0.0_5IB_3FAM; for Melting temp [° C.] + cmpd / Temp. Shift [° C.]: 1 μM RNA, 8 μM compound, 1% DMSO, 10 mM CacoK pH 7.2, 30 mM NaCl
Source text: as §8, §2, §3, §9, §10, §11, §12, §13, §14, §15, §16, §17, §18, §19, §20, §21, §22, §23, §24, §25, §26

[4] = system: Split3WJ.1_up_5IB+Split3WJ.1_down_3FAM (trans 3WJ as 1:1 mix; Split3WJ_1); assay: Thermal shift binding assay; conditions: Split3WJ_1 (trans 3WJ), 1 μM RNA, 8 μM compound
Source text: as §8, §2, §3, §9, §10, §11, §12, §13, §14, §15, §16, §17, §18, §19, §20, §21, §22, §23, §24, §25, §26

RNA3WJ_3.0.0_5IB_3FAM = assay: Thermal shift binding assay; conditions: 1 μM RNA, 8 μM compound
Source text: as §8, §2, §3, §9, §10, §11, §12, §13, §14, §15, §16
Add 0.8 μL Compound-Solution ([…]). […]
as §19, §20, §21, §22, §23, §24, §25

[5] = system: Split3WJ.1_up_5IB+Split3WJ.1_down_3FAM (trans 3WJ as 1:1 mix); assay: Fluorescence quenching binding assay; conditions: trans 3WJ Split3WJ.1; two concentration points; FIG. 109
Method: as §1, §2, §3, §4, §5, §6, §7

| Structure (SMILES) | Effect in fluorescence quenching assay [1] | Melting temp [° C.] + cmpd [2] | Temp. Shift [° C.] [2] | Temp. Shift [° C.] ([2]; listed as Ark000013) | Melting temp [° C.] + cmpd [3] | Temp. Shift [° C.] [3] | Effect in the melting curves (in words) ([3]; FIG. 111, listed as Ark000013) | Melting temp [° C.] + cmpd [4] | Temp. Shift [° C.] [4] | Temp. Shift [° C.] ([4]; listed as Ark000013) | Melting temp [° C.] + cmpd (RNA3WJ_3.0.0_5IB_3FAM) | Temp. Shift [° C.] (RNA3WJ_3.0.0_5IB_3FAM) | Effect in fluorescence quenching assay [5] | Melting temp [° C.] + cmpd ([2]; listed as Ark000014) | Temp. Shift [° C.] ([2]; listed as Ark000014) | Melting temp [° C.] + cmpd ([3]; listed as Ark000014) | Temp. Shift [° C.] ([3]; listed as Ark000014) | Melting temp [° C.] + cmpd ([4]; listed as Ark000014) | Temp. Shift [° C.] ([4]; listed as Ark000014) |
| --- | --- | --- | --- | --- | --- | --- | --- | --- | --- | --- | --- | --- | --- | --- | --- | --- | --- | --- | --- |
| CN(CCCN)CCCNC(=O)c1ccc2c(c1)C1c3cc(C(=O)NCCCN(C)CCCN)ccc3C2c2ccc(C(=O)NCCCN(C)CCCN)cc21 [Ark0000013, N^2,N^7,N^15-tris(3-((3-aminopropyl)(methyl)amino)propyl)-9,10-dihydro-9,10-[1,2]benzenoanthracene-2,7,15-tricarboxamide] | significant concentration dependent effect | 56.9 °C | 12.2 °C | ~13 °C | 87.0 °C | 21.4 °C | significant effect | 58.2 °C | 20.4 °C | ~21 °C | 83.7 °C | 21.7 °C | significant concentration dependent effect | – | – | – | – | – | – |
| NCCCCCCCNC(=O)c1ccc2c(c1)C1c3cc(C(=O)NCCCCCCCN)ccc3C2c2ccc(C(=O)NCCCCCCCN)cc21 [Ark0000014, N^2,N^7,N^15-tris(7-aminoheptyl)-9,10-dihydro-9,10-[1,2]benzenoanthracene-2,7,15-tricarboxamide] | smaller effect on the RNA constructs (Split3WJ_2 shows larger effect) | 44.0 °C | −0.3 °C | – | 68.1 °C | 2.5 °C | – | 37.8 °C | 0.3 °C | – | 63.9 °C | 1.9 °C | smaller effect | 44.7 °C | ~1 °C | 68.4 °C | ~3 °C | 38.8 °C | ~1 °C |
